Source: publication PMC10743086, “Immunofluorescence-Based Assay for High-Throughput Analysis of Multidrug Resistance Markers in Non-Small Cell Lung Carcinoma Patient-Derived Cells” (Diagnostics, 2023)

Key:
Assay type in all cases: cell-based, human
[1] = test system: ABCC1 expression in cancer cells (CK8/18+); assay: Immunofluorescence assay of ABCC1 expression in patient-derived NSCLC cultures; settings: 7 days
Summary of the method: (§1)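 Cancer and non-cancer populations are told apart by a CK8/18 antibody cocktail after paraformaldehyde fixation and BSA blocking, with secondary antibodies applied 2 h at RT. Cultures derive from dissociated NSCLC resections, seeded 1000 cells/well. Compound exposure lasts 7 days, from 72 h post-seeding.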

[2] = test system: ABCB1 expression in cancer cells (CK8/18+); assay: Immunofluorescence assay of ABCB1 expression in patient-derived NSCLC cultures; settings: 7 days
Summary of the method: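 PDC from resected NSCLC, Tumor Dissociation Kit, DMEM/F12 + 5% FBS, hydrocortisone, insulin, EGF, adenine. 1000 cells/well; drug added at 72 h, 7 d exposure. Fix 4% PFA 20 min RT, block 2% BSA 1 h; CK8/18 co-stain with ABC markers.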

[3] = test system: NCI-H460/R cells; assay: Cytotoxicity by immunofluorescence cell scoring (cell counts), multidrug-resistant NSCLC cell line; settings: 24 h treatment
Summary of the method: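 ABCB1-overexpressing NCI-H460/R cells, doxorubicin-selected, treated 48 h after seeding for 24 h. Cytotoxicity from automated imaging cell counts after fixation and CK8/18 plus MDR-marker immunostaining, using cell-scoring analysis.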

[4] = test system: NCI-H460 cells; assay: Cytotoxicity by immunofluorescence cell scoring (cell counts), NSCLC cell line; settings: 24 h treatment
Summary of the method: (§2)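 Compounds added 48 h after seeding, then 24 h exposure. Cells fixed in 4% paraformaldehyde, BSA-blocked, co-stained for ABCB1 with CK8/18 to separate cancer from stromal cells; 4x automated imaging. Cytotoxicity from cell-count scoring; ABCB1 expression from multi-wavelength cell scoring.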

[5] = test system: MRC-5 cells; assay: Cytotoxicity by immunofluorescence cell scoring (cell counts), normal fibroblasts; settings: 24 h treatment
Summary of the method: as §2

[6] = test system: ABCB1 expression in NCI-H460/R cells; assay: Immunofluorescence assay of MDR marker ABCB1 expression; settings: five concentrations, 24 h
Summary of the method: as §2

[7] = test system: ABCB1 expression in MRC-5 cells; assay: as above; settings: five concentrations, 24 h
Summary of the method: as §2

[8] = test system: ABCB1 expression in NCI-H460 cells; assay: as above; settings: five concentrations, 24 h
Summary of the method: as §2

[9] = test system: Cancer cells (CK8/18+) of patient-derived NSCLC cultures; assay: Cytotoxicity in patient-derived NSCLC cultures, cancer cells; settings: 7 days treatment
Summary of the method: as §1

[10] = culture TR58, cancer cells (CK8/18+)
[11] = culture TR64, cancer cells (CK8/18+)
[12] = culture TR65, cancer cells (CK8/18+)
[13] = culture TR84, cancer cells (CK8/18+)
[14] = culture TR87, cancer cells (CK8/18+)
[15] = NCI-H460/R (co-culture with MRC-5)
[16] = NCI-H460 (co-culture with MRC-5)
[17] = MRC-5 (co-culture with NCI-H460)
[18] = MRC-5 (co-culture with NCI-H460/R)
[19] = Homo sapiens, NCI-H460/R (co-culture with MRC-5)
[20] = Homo sapiens, NCI-H460/R monoculture
[21] = Homo sapiens, NCI-H460, 24 h, NCI-H460 (co-culture with MRC-5)
[22] = Homo sapiens, NCI-H460, 24 h, NCI-H460 monoculture
[23] = Homo sapiens, MRC5, 24 h, MRC-5 (co-culture with NCI-H460)
[24] = Homo sapiens, MRC5, 24 h, MRC-5 (co-culture with NCI-H460/R)
[25] = Homo sapiens, MRC5, 24 h, MRC-5 monoculture
[26] = Homo sapiens, 168 h, culture TR58, cancer cells (CK8/18+)
[27] = Homo sapiens, 168 h, culture TR64, cancer cells (CK8/18+)
[28] = Homo sapiens, 168 h, culture TR65, cancer cells (CK8/18+)
[29] = Homo sapiens, 168 h, culture TR84, cancer cells (CK8/18+)
[30] = Homo sapiens, 168 h, culture TR87, cancer cells (CK8/18+)

Structure (SMILES) | ABCC1 expression [1, 10] | ABCC1 expression [1, 11] | ABCC1 expression [1, 12] | ABCC1 expression [1, 13] | ABCC1 expression [1, 14] | ABCB1 Expression [2, 10] | ABCB1 Expression [2, 11] | ABCB1 Expression [2, 12] | ABCB1 Expression [2, 13] | ABCB1 Expression [2, 14] | ABCB1 Expression [6, 15] | ABCB1 Expression ([6]; NCI-H460/R monoculture) | ABCB1 Expression [7, 17] | ABCB1 Expression [7, 18] | ABCB1 Expression ([7]; MRC-5 monoculture) | ABCB1 Expression [8, 16] | ABCB1 Expression ([8]; NCI-H460 monoculture) | IC50 [3, 19] [µM] | IC50 [3, 20] [µM] | IC50 [4, 21] [µM] | also measured
N.N.[Cl][Pt][Cl] [Cisplatin, cisplatin] | no change | increase (An increase in ABCB1, ABCC1, or ABCG2 expression of at least 20% at a minimum of one concentration is shown in the table.) | increase (An increase in ABCB1, ABCC1, or ABCG2 expression of at least 20% at a minimum of one concentration is shown in the table.) | increase (An increase in ABCB1, ABCC1, or ABCG2 expression of at least 20% at a minimum of one concentration is shown in the table.) | increase (An increase in ABCB1, ABCC1, or ABCG2 expression of at least 20% at a minimum of one concentration is shown in the table.) | no change | increase (An increase in ABCB1, ABCC1, or ABCG2 expression of at least 20% at a minimum of one concentration is shown in the table.) | increase (An increase in ABCB1, ABCC1, or ABCG2 expression of at least 20% at a minimum of one concentration is shown in the table.) | increase (An increase in ABCB1, ABCC1, or ABCG2 expression of at least 20% at a minimum of one concentration is shown in the table.) | increase (An increase in ABCB1, ABCC1, or ABCG2 expression of at least 20% at a minimum of one concentration is shown in the table.) | no change | no change | no change | no change | no change | no change | increase (An increase in ABCB1 expression of at least 20% at a minimum of one concentration is shown in the table.) |  |  |  | IC50 [3, 15]: 5.6 µM; IC50 ([3]; NCI-H460/R monoculture): 5.33 µM; IC50 [4, 16]: 9.79 µM; IC50 ([4]; NCI-H460 monoculture): 5.71 µM; IC50 [5, 17]: > 15 µM; IC50 [5, 18]: > 15 µM; IC50 ([5]; MRC-5 monoculture): 14.7 µM; IC50 [9, 10]: 5.78 µM; IC50 [9, 11]: 6.07 µM; IC50 [9, 12]: 14.6 µM; IC50 [9, 13]: 2.11 µM; IC50 [9, 14]: 4.82 µM
Nc1ccn([C@@H]2O[C@H](CO)[C@@H](O)C2(F)F)c(=O)n1 [Gemcitabine, gemcitabine] | no change | increase (An increase in ABCB1, ABCC1, or ABCG2 expression of at least 20% at a minimum of one concentration is shown in the table.) | increase (An increase in ABCB1, ABCC1, or ABCG2 expression of at least 20% at a minimum of one concentration is shown in the table.) | increase (An increase in ABCB1, ABCC1, or ABCG2 expression of at least 20% at a minimum of one concentration is shown in the table.) | increase (An increase in ABCB1, ABCC1, or ABCG2 expression of at least 20% at a minimum of one concentration is shown in the table.) | no change | increase (An increase in ABCB1, ABCC1, or ABCG2 expression of at least 20% at a minimum of one concentration is shown in the table.) | increase (An increase in ABCB1, ABCC1, or ABCG2 expression of at least 20% at a minimum of one concentration is shown in the table.) | increase (An increase in ABCB1, ABCC1, or ABCG2 expression of at least 20% at a minimum of one concentration is shown in the table.) | increase (An increase in ABCB1, ABCC1, or ABCG2 expression of at least 20% at a minimum of one concentration is shown in the table.) | no change | no change | no change | no change | no change | no change | no change | 29.4 | 33.6 | 34.6 | IC50 [4, 22]: 41.6 µM; IC50 [5, 23]: > 100 µM; IC50 [5, 24]: > 100 µM; IC50 [5, 25]: > 100 µM; IC50 [9, 26]: 2.55 µM; IC50 [9, 27]: 4.92 µM; IC50 [9, 28]: 4.91 µM; IC50 [9, 29]: 2.68 µM; IC50 [9, 30]: 3.41 µM
CC(=O)O[C@H]1C(=O)[C@@]2(C)[C@H]([C@H](OC(=O)c3ccccc3)[C@]3(O)C[C@H](OC(=O)[C@H](O)[C@@H](NC(=O)c4ccccc4)c4ccccc4)C(C)=C1C3(C)C)[C@]1(OC(C)=O)CO[C@@H]1C[C@@H]2O [Paclitaxel, paclitaxel] | no change | increase (An increase in ABCB1, ABCC1, or ABCG2 expression of at least 20% at a minimum of one concentration is shown in the table.) | increase (An increase in ABCB1, ABCC1, or ABCG2 expression of at least 20% at a minimum of one concentration is shown in the table.) | increase (An increase in ABCB1, ABCC1, or ABCG2 expression of at least 20% at a minimum of one concentration is shown in the table.) | increase (An increase in ABCB1, ABCC1, or ABCG2 expression of at least 20% at a minimum of one concentration is shown in the table.) | increase (An increase in ABCB1, ABCC1, or ABCG2 expression of at least 20% at a minimum of one concentration is shown in the table.) | increase (An increase in ABCB1, ABCC1, or ABCG2 expression of at least 20% at a minimum of one concentration is shown in the table.) | increase (An increase in ABCB1, ABCC1, or ABCG2 expression of at least 20% at a minimum of one concentration is shown in the table.) | increase (An increase in ABCB1, ABCC1, or ABCG2 expression of at least 20% at a minimum of one concentration is shown in the table.) | increase (An increase in ABCB1, ABCC1, or ABCG2 expression of at least 20% at a minimum of one concentration is shown in the table.) | no change | no change | no change | no change | no change | increase (An increase in ABCB1 expression of at least 20% at a minimum of one concentration is shown in the table.) | increase (An increase in ABCB1 expression of at least 20% at a minimum of one concentration is shown in the table.) | > 5 | > 5 | 0.339 | IC50 [4, 22]: 0.381 µM; IC50 [5, 23]: > 5 µM; IC50 [5, 24]: > 5 µM; IC50 [5, 25]: > 5 µM; IC50 [9, 26]: 1.18 µM; IC50 [9, 27]: 1.35 µM; IC50 [9, 28]: 1.18 µM; IC50 [9, 29]: 2.57 µM; IC50 [9, 30]: 4.79 µM
